The results in this text go back to patent publication US12612410B2 (CHILDREN'S HOSPITAL MEDICAL CENTER, priority 2020, dated 2026).

Type in all cases: biochemical
Common to all, as to conditions: isolated kinase, 33P-ATP

In one experiment the target is T1, IRAK4 (Homo sapiens, UniProt Q9NWZ3).
T1 sequence (Q9NWZ3 1-460): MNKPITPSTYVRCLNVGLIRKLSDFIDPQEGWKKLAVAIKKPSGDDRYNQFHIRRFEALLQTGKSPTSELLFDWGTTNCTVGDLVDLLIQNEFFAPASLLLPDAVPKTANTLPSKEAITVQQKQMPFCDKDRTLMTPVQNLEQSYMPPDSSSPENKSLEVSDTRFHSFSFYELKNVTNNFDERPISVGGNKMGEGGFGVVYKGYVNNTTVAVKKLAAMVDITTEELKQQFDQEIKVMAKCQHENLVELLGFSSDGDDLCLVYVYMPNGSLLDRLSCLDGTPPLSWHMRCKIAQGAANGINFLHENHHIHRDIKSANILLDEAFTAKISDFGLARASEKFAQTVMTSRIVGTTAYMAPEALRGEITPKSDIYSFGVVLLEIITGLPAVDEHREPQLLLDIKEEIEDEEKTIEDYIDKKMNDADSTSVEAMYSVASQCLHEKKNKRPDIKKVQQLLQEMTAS
Kind of experiment: RBC HotSpot Kinase Assay, IRAK4. Further details: purchased Reaction Biology (RBC), HotSpot kinase assay. An excerpt: (§1) This assay uses the isolated kinase enzyme. This assay is very useful for determining competition of the inhibitor for ATP and/or substrates and for measuring the kinetics of enzyme inhibition. […] Unlike kinase binding assays that measure competition for ATP, the HotSpot Kinase Assay is a functional assay that measures catalytic activity; as such it measures relative functional potency regardless of the mechanism of enzyme inhibition. This assay uses the form of the various enzymes that are easiest to express, which may not necessarily be the form of the enzyme that exist in the cell. (Sometimes the carboxy terminus has been truncated to aid in expression, or, if it is a receptor kinase, the enzyme itself is isolated from the other parts of the receptor that are involved in regulating kinase activity.)
(§2) The reagent used was as follows: Base Reaction buffer; 20 mM Hepes (pH 7.5), 10 mM MgCl2, 1 mM EGTA, 0.01% Brij35, 0.02 mg/ml BSA, 0.1 mM Na3VO4, 2 mM DTT, 1% DMSO. Required cofactors were added individually to each kinase reaction.
(§3) The reaction procedure was as follows: • 1) Substrates were prepared in freshly prepared Reaction Buffer. • 2) Any required cofactors were delivered to the substrate solution above. • 3) Kinase was delivered into the substrate solution and gently mixed. • 4) Compounds were delivered in 100% DMSO into the kinase reaction mixture by Acoustic technology (Echo550; nanoliter range), followed by incubation for 20 min at room temp. • 5)^33P-ATP was delivered into the reaction mixture to initiate the reaction. • 6) The mixture was incubated for 2 hours at room temperature. • 7) Kinase activity was detected by P81 filter-binding method.

The next experiment concerns the target T2, IRAK1 (Homo sapiens, UniProt P51617).
T2 construct: purchased Reaction Biology (RBC), HotSpot kinase assay
Kind of experiment: RBC HotSpot Kinase Assay, IRAK1.
Source text: as §1, §2, §3

The next experiment deals with T3, FLT3 (Homo sapiens, UniProt P36888).
T3 sequence (P36888 27-993): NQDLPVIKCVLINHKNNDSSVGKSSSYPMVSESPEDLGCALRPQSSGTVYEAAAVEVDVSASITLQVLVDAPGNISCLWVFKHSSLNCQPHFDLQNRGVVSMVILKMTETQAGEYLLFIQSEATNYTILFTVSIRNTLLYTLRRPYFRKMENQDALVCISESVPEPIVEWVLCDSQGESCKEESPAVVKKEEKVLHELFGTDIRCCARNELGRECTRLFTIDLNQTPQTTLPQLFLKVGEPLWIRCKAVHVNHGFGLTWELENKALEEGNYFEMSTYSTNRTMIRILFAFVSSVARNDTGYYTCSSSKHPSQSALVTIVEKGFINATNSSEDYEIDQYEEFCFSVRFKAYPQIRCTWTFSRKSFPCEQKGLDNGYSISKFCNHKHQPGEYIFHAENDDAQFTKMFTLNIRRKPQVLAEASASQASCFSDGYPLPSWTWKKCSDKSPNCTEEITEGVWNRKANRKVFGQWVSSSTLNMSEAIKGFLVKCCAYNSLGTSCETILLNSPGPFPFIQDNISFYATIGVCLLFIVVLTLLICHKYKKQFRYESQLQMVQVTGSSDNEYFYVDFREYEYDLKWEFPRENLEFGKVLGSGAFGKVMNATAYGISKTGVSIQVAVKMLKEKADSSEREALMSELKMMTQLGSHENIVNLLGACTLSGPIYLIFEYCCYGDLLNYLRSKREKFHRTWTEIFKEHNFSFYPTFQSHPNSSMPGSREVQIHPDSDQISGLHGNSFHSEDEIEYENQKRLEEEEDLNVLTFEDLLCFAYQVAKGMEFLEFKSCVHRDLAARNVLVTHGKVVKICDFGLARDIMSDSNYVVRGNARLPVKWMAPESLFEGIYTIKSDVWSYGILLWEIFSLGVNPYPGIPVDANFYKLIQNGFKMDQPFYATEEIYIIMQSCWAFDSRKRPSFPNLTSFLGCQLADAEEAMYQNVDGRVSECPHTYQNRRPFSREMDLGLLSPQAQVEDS
Kind of experiment: RBC HotSpot Kinase Assay, FLT3. Also noted: purchased Reaction Biology (RBC), HotSpot kinase assay.
Source text: as §1, §2, §3

T2 sequence (P51617 whole entry): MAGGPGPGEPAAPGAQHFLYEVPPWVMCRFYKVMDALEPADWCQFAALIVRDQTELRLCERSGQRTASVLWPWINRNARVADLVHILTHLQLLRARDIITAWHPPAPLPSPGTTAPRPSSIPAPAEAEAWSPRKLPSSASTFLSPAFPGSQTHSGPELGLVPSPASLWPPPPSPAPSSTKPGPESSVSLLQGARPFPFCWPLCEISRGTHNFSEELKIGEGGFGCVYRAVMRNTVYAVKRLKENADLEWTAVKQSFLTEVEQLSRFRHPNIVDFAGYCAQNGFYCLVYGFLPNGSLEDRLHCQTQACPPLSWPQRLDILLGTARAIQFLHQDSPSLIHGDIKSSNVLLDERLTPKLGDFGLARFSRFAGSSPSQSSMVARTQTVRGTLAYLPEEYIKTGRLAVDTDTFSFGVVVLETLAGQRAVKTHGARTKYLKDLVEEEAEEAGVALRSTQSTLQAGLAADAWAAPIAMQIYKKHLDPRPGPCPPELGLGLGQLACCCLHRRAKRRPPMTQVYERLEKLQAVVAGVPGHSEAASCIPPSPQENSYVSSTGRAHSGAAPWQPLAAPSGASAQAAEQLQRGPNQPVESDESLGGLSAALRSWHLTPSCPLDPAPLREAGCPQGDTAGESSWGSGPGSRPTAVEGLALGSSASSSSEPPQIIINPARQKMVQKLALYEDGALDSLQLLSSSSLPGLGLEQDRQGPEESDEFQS

Regarding `c1cc(N[C@@H]2CCCNC2)nc(-c2cnc3cnc(-c4cnn5ccccc45)cn23)c1` [Compound 47], the IC50 was 7 nM against IRAK4, 154 nM on IRAK1 and < 0.5 nM at FLT3.
Regarding `FC(F)n1cc(-c2cn3c(-c4cccc(N[C@H]5CNC[C@@H]5F)n4)cnc3cn2)cn1` [Compound 53, 6-(6-(1-(difluoromethyl)-1H-pyrazol-4-yl)imidazo[1,2-a]pyrazin-3-yl)-N-((3S,4S)-4-fluoropyrrolidin-3-yl)pyridin-2-amine], the IC50 on IRAK4 amounted to 12 nM; on IRAK1 it was 1250 nM; against FLT3, 0.6 nM.
Taken in the same sequence, the figures for `CC(C)(O)Cn1cc(-c2cn3c(-c4cccc(N[C@H]5CNC[C@@H]5F)n4)cnc3cn2)cn1` [Compound 54, 1-(4-(3-(6-(((3S,4S)-4-fluoropyrrolidin-3-yl)amino)pyridin-2-yl)imidazo[1,2-a]pyrazin-6-yl)-1H-pyrazol-1-yl)-2-methylpropan-2-ol] were 5 nM, 2290 nM and < 0.5 nM.
For the compound `F[C@H]1CNC[C@@H]1Nc1cccc(-c2cnc3cnc(-c4cnn5ccccc45)cn23)n1` [Compound 55, N-((3S,4S)-4-fluoropyrrolidin-3-yl)-6-(6-(pyrazolo[1,5-a]pyridin-3-yl)imidazo[1,2-a]pyrazin-3-yl)pyridin-2-amine], the results for the IC50 at IRAK4, at IRAK1 and on FLT3 were < 0.5 nM, 304 nM and < 0.5 nM, respectively.
`COc1cn2c(-c3cccc(N[C@H]4CNC[C@@H]4F)n3)cnc2cn1` [Compound 56, N-((3S,4S)-4-fluoropyrrolidin-3-yl)-6-(6-methoxyimidazo[1,2-a]pyrazin-3-yl)pyridin-2-amine]: the IC50 on IRAK4 was found to be 4 nM; on IRAK1, 840 nM; at FLT3, 0.7 nM.
Taken in the same sequence, the figures for `CC1(C)CCN(c2cn3c(-c4cccc(N[C@H]5CNC[C@@H]5F)n4)cnc3cn2)C1=O` [Compound 61, 1-(3-(6-(((3S,4S)-4-fluoropyrrolidin-3-yl)amino)pyridin-2-yl)imidazo[1,2-a]pyrazin-6-yl)-3,3-dimethylpyrrolidin-2-one] were 46 nM, 3540 nM and 2 nM.
Taken in the same sequence, the figures for `CC1(C)CC(=O)N(c2cn3c(-c4cccc(N[C@H]5CNC[C@@H]5F)n4)cnc3cn2)C1` [Compound 63, 1-(3-(6-(((3S,4S)-4-fluoropyrrolidin-3-yl)amino)pyridin-2-yl)imidazo[1,2-a]pyrazin-6-yl)-4,4-dimethylpyrrolidin-2-one] were 238 nM, 3430 nM and < 0.5 nM.
For the compound `OC1(C(F)(F)F)CCN(c2cn3c(-c4cccc(N[C@H]5CNC[C@@H]5F)n4)cnc3cn2)C1` (stereo partly drawn) [Compound 66, 1-(3-(6-(((3S,4S)-4-fluoropyrrolidin-3-yl)amino)pyridin-2-yl)imidazo[1,2-a]pyrazin-6-yl)-3-(trifluoromethyl)pyrrolidin-3-ol], the IC50 worked out at 4 nM against IRAK4, 6020 nM at IRAK1 and 1 nM against FLT3.
For `F[C@H]1CNC[C@@H]1Nc1cccc(-c2cnc3cnc(N4CCC(F)(F)C4)cn23)n1` [Compound 67, 6-(6-(3,3-difluoropyrrolidin-1-yl)imidazo[1,2-a]pyrazin-3-yl)-N-((3S,4S)-4-fluoropyrrolidin-3-yl)pyridin-2-amine] the same measures were 4 nM, 8190 nM and 0.7 nM.
Turning to `c1cc(N[C@@H]2CCCNC2)nc(-c2cnc3cnccn23)c1` [Compound 69, (R)-6-(imidazo[1,2-a]pyrazin-3-yl)-N-(piperidin-3-yl)pyridin-2-amine], the figures for the IC50 at IRAK4, against IRAK1 and on FLT3 were 15 nM, 2030 nM and < 0.5 nM, respectively.
As for `F[C@H]1CCNC[C@@H]1Nc1cccc(-c2cnc3cnccn23)n1` [Compound 70, N-((3S,4S)-4-fluoropiperidin-3-yl)-6-(imidazo[1,2-a]pyrazin-3-yl)pyridin-2-amine], the IC50 at IRAK4 was 20 nM; against IRAK1 it was 696 nM; on FLT3 it was < 0.5 nM.
As for `c1cc(N[C@H]2CNCC23CC3)nc(-c2cnc3cnccn23)c1` [Compound 71, (R)-N-(6-(imidazo[1,2-a]pyrazin-3-yl)pyridin-2-yl)-5-azaspiro[2.4]heptan-7-amine], the IC50 was 2 nM on IRAK4, 966 nM on IRAK1 and < 0.5 nM on FLT3.
Taken in the same sequence, the figures for `CC1(C)CNCC1Nc1cccc(-c2cnc3cnccn23)n1` (stereo not drawn) [Compound 72] were 14 nM, 4190 nM and < 0.5 nM.
Taken in the same sequence, the figures for `C[C@H]1CNC[C@@H]1Nc1cccc(-c2cnc3cnccn23)n1` [Compound 73, 6-(imidazo[1,2-a]pyrazin-3-yl)-N-((3R,4S)-4-methylpyrrolidin-3-yl)pyridin-2-amine] were 2 nM, 622 nM and < 0.5 nM.
For `CC1(C)CCNCC1Nc1cccc(-c2cnc3cnccn23)n1` (stereo not drawn) [Compound 74, N-(4,4-dimethylpiperidin-3-yl)-6-(imidazo[1,2-a]pyrazin-3-yl)pyridin-2-amine] the same measures were 14 nM, 4780 nM and < 0.5 nM.
As for `CCOc1cn2c(-c3cccc(N[C@H]4CNC[C@@H]4F)n3)cnc2cn1` [compound 57, 6-(6-ethoxyimidazo[1,2-a]pyrazin-3-yl)-N-((3S,4S)-4-fluoropyrrolidin-3-yl)pyridin-2-amine], the IC50 at IRAK4 is 2 nM; against IRAK1, 165 nM; at FLT3, < 0.5 nM.
For `O=C1CC2(COC2)CN1c1cn2c(-c3cccc(N[C@H]4CNC[C@@H]4F)n3)cnc2cn1` [compound 62, 6-(3-(6-(((3S,4S)-4-fluoropyrrolidin-3-yl)amino)pyridin-2-yl)imidazo[1,2-a]pyrazin-6-yl)-2-oxa-6-azaspiro[3.4]octan-7-one] the same measures were 86 nM, 7010 nM and < 0.5 nM.

By IC50 is commonly meant the concentration needed to halve the response being measured.
